# In US20240216401A1, “COMBINATION THERAPY BY USING AKR1C3-ACTIVATED COMPOUND WITH IMMUNE CHECKPOINT INHIBITOR” (OBI Pharma, Inc., priority 2021, published 2024):
# Where “and” joins values, the source holds several entries; their conditions need not be identical. Equal values may be shown once.
# Key:
# Type in all cases: in vivo, Mus musculus
# [1] = test system: CD8^+ cytotoxic T cells (CTL) in tumor-infiltrating lymphocytes; assay: Example 1: flow cytometry, percentage of CTL cells in TILs
# Procedure: (§1) Mice were sacrificed by CO2 euthanasia at the end of the study duration, and the connective tissue around tumor was resected. The tumor samples were then removed and weighed. The half tissue was fixed in 10% formaldehyde and then embedded in paraffin; the other half was prepared for the isolation of tumor-infiltrating lymphocytes (TILs).
# (§2) The half of mouse tumors were dissected into smaller fragments using scalpels and then digested with a cocktail of collagenase, DNase I, and Hyaluronidase (Collagenase #C5138, DNase I #D5025, Hyaluronidase #H6254, SigmaAldrich) for at least 2 hours.
# (§3) Cells were stained with the fluorescently conjugated surface antibodies and incubated for 30 minutes at 4° C., and then resuspended in staining buffer for flow cytometric analysis. Flow cytometry was done using a Navios EX Flow Cytometer (Beckman Coulter). Data were analyzed using the Kaluza Analysis Software (Beckman Coulter).
# [2] = test system: HepG2 tumor; assay: Example 1: tumor volume, tumor weight and TGI in HepG2 tumor bearing humanized mice
# Procedure: (§4) Each group contains five mice. The human hepatocellular carcinoma cell line HepG2 were subcutaneously inoculated to the advanced immune deficiency mice. Total of 30 mice were included in this study.
# 2.2. […] The subcutaneous injection volume was […].
# (§5) 3.1. […] The injection was performed using insulin syringe with the dosage of 10 mg/kg (Dosage of injection was changed to 20 mg/kg from Day 15) and injection volume of 10 mL/kg. […] The reference item was administered for G1. The procedure followed the standards of sample administration.
# (§6) 3.2. The test item anti-hPD-L1 antibody or reference items were intraperitoneally injected to the mice on Day 8 after the inoculation of tumor cells. The injection was performed using insulin syringe with the dosage of 10 mg/kg (Dosage of injection was changed to 20 mg/kg from Day 15) and injection volume of 10 mL/kg. The test item anti-hPD-L1 was continuously administered on Day 8, 11, 15, 18, 22, 25, 29 and 32 for G4 and G6. The reference item was administered for G1. The procedure followed the standards of sample administration.
# (§7) 3.3. […] The injection was performed using insulin syringe with the dosage of 1 mg/kg and injection volume of 5 mL/kg. […] The reference item was administered for G1. The procedure followed the standards of sample administration.
# The measurement was performed from the next day of the inoculation. The tumor volumes were measured and recorded twice a week (Mon., Thur.). Tumor volume was calculated by ellipsoid equation according to the records ((major axis×minor axis×minor axis)×(π/6)).
# Tumor volumes were used to calculate tumor growth inhibition (TGI) rates according to the following formula: TGI (%)=[1−(Ti−T0)/(Ci−C0)]×100, where Ti and Ci indicate the mean tumor volume in the treatment groups and vehicle group at the end of the experiment (Day 35). Whereas, T0 and C0 indicate the mean tumor volumes in the treatment group and vehicle group at the beginning of the experiment (Day 1).
# as §1
# [3] = test system: CD4^+ T helper cells in tumor-infiltrating lymphocytes; assay: Example 1: flow cytometry, percentage of TH cells in TILs; details: individual mice
# Procedure: as §1, §2, §3
# [4] = test system: PD-L1^+ cells in tumor-infiltrating lymphocytes; assay: Example 1: flow cytometry, percentage of PD-L1 cells in TILs; details: individual animal
# Procedure: as §1, §2, §3
# [5] = test system: NK cells in tumor-infiltrating lymphocytes; assay: Example 1: flow cytometry, percentage of NK cells in TILs; details: individual mice
# Procedure: as §1, §2, §3
# [6] = Example 1: body weight and mortality of HepG2 tumor bearing humanized mice; details: OBI-3424 1 mg/kg IV, antibody 10 mg/kg IP (20 from Day 15)
# Procedure: as §4, §5, §6, §7
# The measurement was performed from the next day of the inoculation. The animal body weights were measured and recorded twice per week.
# [7] = TILs, flow cytometer, individual mice
# [8] = TILs, gate CD45^+CD8^+ cells, individual mice
substance,measurement,setting,value
"anti-hPD-1: Anti-Human PD-1 antibody, Pembrolizumab, Merck & Co., Inc.",CD8^+ cytotoxic T cells (CTL) population in tumors compared with vehicle (in words),"[1]; Example 1, TILs at sacrifice, flow cytometry",not observed
same,CD25^+ CTL cells (CD45^+CD8^+ CD25^+) Total %,[1]; [7],0.26% and 0.10% and 0.65% and 0.84% and 0.41%
same,CTL cells (CD45^+CD8^+) Total %,[1]; [7],9.30% and 6.22% and 21.30% and 11.17% and 24.91%
same,PD-1^+ CTL cells (CD45^+CD8^+ PD-1^+) Total %,[1]; [7],10.83% and 9.53% and 15.71% and 10.88% and 14.41%
same,CTL cells (CD45^+CD8^+) CD45^+ Gated %,"[1]; TILs, gate CD45^+ cells, individual mice",36.10% and 34.75% and 75.47% and 53.85% and 55.75%
same,CD25^+ CTL cells (CD45^+CD8^+ CD25^+) CTL Gated %,[1]; [8],2.80% and 1.53% and 3.05% and 7.48% and 1.65%
same,PD-1^+ CTL cells (CD45^+CD8^+ PD-1^+) CTL Gated %,[1]; [8],89.36% and 84.37% and 66.70% and 66.59% and 57.38%
same,CD25^+ CTL cells (CD45^+CD8^+ CD25^+) Cell count,"[1]; TILs, individual mice",0.79 ×10^5 and 0.35 ×10^5 and 0.62 ×10^5 and 1.08 ×10^5 and 0.28 ×10^5
same,CTL cells (CD45^+CD8^+) Cell count,"[1]; TILs, individual mice",28.27 ×10^5 and 21.83 ×10^5 and 20.30 ×10^5 and 14.41 ×10^5 and 16.91 ×10^5
same,PD-1^+ CTL cells (CD45^+CD8^+ PD-1^+) Cell count,"[1]; TILs, individual mice",32.92 ×10^5 and 33.45 ×10^5 and 14.97 ×10^5 and 14.04 ×10^5 and 9.78 ×10^5
same,"Tumor volume, Mean","[2]; D 1, group mean, OBI-3424 1 mg/kg IV, antibody 10 mg/kg IP (20 from Day 15)",354.80 mm^3
same,"Tumor volume, Mean","[2]; D 4, group mean, OBI-3424 1 mg/kg IV, antibody 10 mg/kg IP (20 from Day 15)",269.37 mm^3
same,"Tumor volume, Mean","[2]; D 7, group mean, OBI-3424 1 mg/kg IV, antibody 10 mg/kg IP (20 from Day 15)",301.61 mm^3
same,"Tumor volume, Mean","[2]; D 11, group mean, OBI-3424 1 mg/kg IV, antibody 10 mg/kg IP (20 from Day 15)",339.50 mm^3
same,"Tumor volume, Mean","[2]; D 14, group mean, OBI-3424 1 mg/kg IV, antibody 10 mg/kg IP (20 from Day 15)",393.76 mm^3
same,"Tumor volume, Mean","[2]; D 18, group mean, OBI-3424 1 mg/kg IV, antibody 10 mg/kg IP (20 from Day 15)",735.09 mm^3
same,"Tumor volume, Mean","[2]; D 21, group mean, OBI-3424 1 mg/kg IV, antibody 10 mg/kg IP (20 from Day 15)",880.07 mm^3
same,"Tumor volume, Mean","[2]; D 25, group mean, OBI-3424 1 mg/kg IV, antibody 10 mg/kg IP (20 from Day 15)",947.95 mm^3
same,"Tumor volume, Mean","[2]; D 28, group mean, OBI-3424 1 mg/kg IV, antibody 10 mg/kg IP (20 from Day 15)",1171.03 mm^3
same,"Tumor volume, Mean","[2]; D 32, group mean, OBI-3424 1 mg/kg IV, antibody 10 mg/kg IP (20 from Day 15)",1366.17 mm^3
same,"Tumor volume, Mean","[2]; D 35, group mean (mean±SEM), OBI-3424 1 mg/kg IV, antibody 10 mg/kg IP (20 from Day 15)",1613.37±338.07 mm^3 and 1613.37 mm^3
same,"Tumor weight, Mean","[2]; D 35, group mean, OBI-3424 1 mg/kg IV, antibody 10 mg/kg IP (20 from Day 15)",1266.48 mg
same,mean tumor volume compared with vehicle (in words),"[2]; Day 35, vs vehicle (G1), Student's t-test",No statistically significant difference
same,effect on tumor growth (conclusion in words),[2]; HepG2 humanized mouse model,no effect on tumor growth
same,TGI,"[2]; from mean tumor volumes Day 35 vs Day 1, relative to vehicle, OBI-3424 1 mg/kg IV, antibody 10 mg/kg IP (20 from Day 15)",−9.69%
same,CD25^+ TH cells (CD45^+CD4^+ CD25^+) Total %,[3]; flow cytometer,0.71% and 0.67% and 0.82% and 1.28% and 0.45%
same,PD-1^+ TH cells (CD45^+CD4^+ PD-1^+) Total %,[3]; flow cytometer,20.78% and 11.99% and 9.21% and 11.61% and 15.49%
same,TH cells (CD45^+CD4^+) Total %,[3]; flow cytometer,19.18% and 11.07% and 9.76% and 11.17% and 18.23%
same,TH cells (CD45^+CD4^+) CD45^+ Gated %,[3]; gate CD45^+ cells,74.49% and 61.90% and 34.59% and 53.85% and 40.81%
same,CD25^+ TH cells (CD45^+CD4^+CD25^+) TH Gated %,[3]; gate CD45^+CD4^+ cells,3.70% and 6.05% and 8.35% and 11.42% and 2.44%
same,PD-1^+ TH cells (CD45^+CD4^+ PD-1^+) TH Gated %,[3]; gate CD45^+CD4^+ cells,96.11% and 90.08% and 83.23% and 82.55% and 85.27%
same,CD25^+ TH cells (CD45^+CD4^+ CD25^+) Cell count,[3],2.16 ×10^5 and 2.35 ×10^5 and 0.78 ×10^5 and 1.65 ×10^5 and 0.31 ×10^5
same,PD-1^+ TH cells (CD45^+CD4^+ PD-1^+) Cell count,[3],63.17 ×10^5 and 42.08 ×10^5 and 8.78 ×10^5 and 14.98 ×10^5 and 10.52 ×10^5
same,TH cells (CD45^+CD4^+) Cell count,[3],58.31 ×10^5 and 38.86 ×10^5 and 9.30 ×10^5 and 14.41 ×10^5 and 12.38 ×10^5
same,CD45^+ cells Cell count (×10^6),[4],7.83 ×10^6 and 6.28 ×10^6 and 2.69 ×10^6 and 2.68 ×10^6 and 3.03 ×10^6
same,CD45^+ cells Gated %,[4],41.15% and 30.42% and 47.95% and 36.87% and 63.31%
same,CD45^+ cells Total %,[4],25.75% and 17.89% and 28.22% and 20.74% and 44.68%
same,Total PD-L1^+ cells (PD-L1^+) Cell count (×10^5),[4],10.55 ×10^5 and 13.65 ×10^5 and 2.38 ×10^5 and 7.80 ×10^5 and 4.22 ×10^5
same,"Total PD-L1^+ cells (PD-L1^+), Total %",[4],3.47% and 3.89% and 2.50% and 6.05% and 6.21%
same,"Total PD-L1^+ cells (PD-L1^+), Total cells Gated %",[4],6.45% and 7.52% and 3.68% and 7.83% and 6.95%
same,Total cells Cell count (×10^6),[4],16.37 ×10^6 and 18.15 ×10^6 and 6.47 ×10^6 and 9.97 ×10^6 and 6.06 ×10^6
same,Total cells Gated %,[4],53.84% and 51.71% and 67.88% and 77.26% and 89.23%
same,Total cells Total %,[4],53.84% and 51.71% and 67.88% and 77.26% and 89.23%
same,CD16^+ NK cells (CD45^+CD56^+ CD16^+) Total %,[5]; flow cytometer,0.41% and 0.32% (2×) and 0.44% and 0.79%
same,NK cells (CD45^+CD56^+) Total %,[5]; flow cytometer,2.91% and 1.08% and 3.01% and 1.93% and 4.76%
same,PD-1^+ NK cells (CD45^+CD56^+PD-1^+) Total %,[5]; flow cytometer,2.67% and 1.13% and 2.36% and 1.46% and 1.78%
same,NK cells (CD45^+CD56^+) CD45^+ Gated %,[5]; gate CD45^+ cells,12.27% and 6.34% and 12.96% and 9.57% and 12.69%
same,CD16^+ NK cells (CD45^+CD56^+ CD16^+) NK Gated %,[5]; gate CD45^+CD56^+ cells,13.94% and 29.77% and 14.48% and 16.58% and 16.61%
same,PD-1^+ NK cells (CD45^+CD56^+PD-1^+) NK Gated %,[5]; gate CD45^+CD56^+ cells,99.81% and 100.00% and 87.08% and 98.31% and 64.90%
same,CD16^+ NK cells (CD45^+CD56^+ CD16^+) Cell count,[5],1.25 ×10^5 and 1.12 ×10^5 and 0.42 ×10^5 and 0.41 ×10^5 and 0.54 ×10^5
same,NK cells (CD45^+CD56^+) Cell count,[5],8.85 ×10^5 and 3.79 ×10^5 and 2.87 ×10^5 and 2.49 ×10^5 and 3.23 ×10^5
same,PD-1^+ NK cells (CD45^+CD56^+PD-1^+) Cell count,[5],8.12 ×10^5 and 3.97 ×10^5 and 2.25 ×10^5 and 1.88 ×10^5 and 1.21 ×10^5
same,"Body Weight, Mean","[6]; Day 0, group mean",22.84 g
same,"Body Weight, Mean","[6]; Day 1, group mean",22.47 g
same,"Body Weight, Mean","[6]; Day 4, group mean",23.47 g
same,"Body Weight, Mean","[6]; Day 7, group mean",23.48 g
same,"Body Weight, Mean","[6]; Day 11, group mean",23.90 g
same,"Body Weight, Mean","[6]; Day 14, group mean",23.94 g
same,"Body Weight, Mean","[6]; Day 18, group mean",24.30 g
same,"Body Weight, Mean","[6]; Day 21, group mean",23.59 g
same,"Body Weight, Mean","[6]; Day 25, group mean",23.42 g
same,"Body Weight, Mean","[6]; Day 28, group mean",22.52 g
same,"Body Weight, Mean","[6]; Day 32, group mean",22.55 g
same,"Body Weight, Mean","[6]; Day 35, group mean",22.77 g
